`Oc1ccc(-n2nc3ccccc3n2)cc1` gave a melting point of 216 to 218 °C.
For the compound `C=CC(C)(C)C(=O)C(Oc1ccc(Cl)cc1)n1ccnc1` (stereo not given), the melting point was 72 to 74 °C.
For `CCC1(CCCN2CCN(c3ccccn3)CC2)C(=O)Nc2ccccc21` (stereo not given) the value was 122 to 124 °C.
For `CCCCCN1Cc2cccc(S(N)(=O)=O)c2S1(=O)=O` the value was 156 to 160 °C; for `C=CC(C)(C)C(O)(COc1ccc(-c2ccccc2)cc1)Cn1cnnc1` (stereo not given), 171 to 173 °C.
`CN(C)C=Nc1sc(C=O)c(Cl)c1C#N` showed a melting point of 186 °C.
For `COc1ccc2cc(C(=O)O)oc(=O)c2c1OC` the value was 262 to 263 °C; for `COc1cc(C(=O)NC2OCC(c3ccccc3)N3CCCCC23)cc(OC)c1OC` (stereo not given), 126 to 128 °C; for `O=[N+]([O-])c1nccn1C1CCCCO1` (stereo not given), 50 °C.
On to `CCOC(=O)c1c(C)cc2nc(C)n(-c3ccccc3Cl)c(=O)c2c1C`, for which the melting point lay in the range of 131 to 132 °C.
Under `O=C(O)c1ccc(NCc2ccccc2)cc1` stands 165 to 168 °C.
Under `Cc1c(Br)ccc([N+](=O)[O-])c1C#N` stands 116 to 118 °C; under `CC(C)(C)c1nc2ccc(Cl)nn2n1`, 128 to 130 °C; under `O=C1Cc2cc3c(CCC4CCN(Cc5ccc(Br)cc5)CC4)noc3cc2N1`, 177 to 178 °C.
Under `Nc1cccc(-c2ccc(CCNCc3cccc(Cl)c3)c3ccccc23)n1` stands 60 to 75 °C; under `CCOc1ccc(CC(=O)O)cc1OCCCc1cn(-c2ccc(C(F)(F)F)cn2)nc1C(C)C`, 116 to 117 °C.
In the case of `COc1ccccc1-c1cccc(-n2cnc(-c3nc(C)no3)c2)c1`, the melting point lay in the range of 97.1 to 101 °C.
As to `Cc1c(-c2ccc3c(c2)N(C)C(=O)CS3)nc2ccccn12`, the melting point was 191 °C.
Under `CONC(=O)C(Cc1ccccc1)N(C)C(=O)C1CCCCC1C(=O)O` (stereo not given) stands 168 to 171 °C.
For `COc1ccc(CCc2cc3cc(C#N)ccc3o2)c(C(=O)O)c1` the value was 179 to 182 °C; for `COC(=O)c1cc2ccccc2o1`, 53.8 to 54 °C.
For `Cc1ccc2nc(-c3cccnc3N)n(-c3ccc(CNC(=O)c4ccccc4)cc3)c2n1` the value was 203 to 205 °C; for `Cn1nc2ccccc2c1C(=O)NC1CCN(CCCc2ccc(F)cc2)CC1`, 162 to 165 °C.
Take `CCC1(CC)OC(=O)Nc2ccc(/C(=C/C#N)C(C)C)cc21`: the melting point was in the range of 138 to 140 °C.
`O=S(=O)(N[C@@H]1c2ccccc2CCC[C@H]1O)c1ccccc1` (relative stereo) returned a melting point of 128 °C.
Turning to `CS(=O)(=O)c1ccc(-c2nc(C(F)(F)F)nn2-c2ccc(O)cc2)cc1`, the melting point turned out to be 246 °C.
Under `N#Cc1c(N2CCCCC2)cc(-c2ccc3ccccc3c2)c2c1-c1ccccc1C2` stands 136 to 138 °C; under `CC(C)(C)C(=O)OCOC(=O)c1cn(CC(F)(F)F)c2cc3c(cc2c1=O)OCO3`, 190 to 191 °C; under `CCOC(=O)C1=Cc2cc(-c3ccc(S(C)(=O)=O)cc3)ccc2OCC1`, 150 to 153 °C.
On to `CCCCNC(=O)C(C)(C)COc1cccc2nc(C)c(C(=O)O)c(N)c12`, for which the melting point is 195 to 199 °C.
The compound `Fc1cc(CC2(Cc3ccnc(F)c3)c3ccccc3-c3nc(-c4ccccc4)ncc32)ccn1` returned a melting point of 213 to 215 °C.
The compound `O=C(c1ccccc1Cl)c1ccccc1I` returned a melting point of 62 to 64 °C.
As to `CNc1nc2ccccc2cc1[N+](=O)[O-]`, the melting point is 160 °C.
In turn, `CCCOc1nc2cccc(C(=O)O)c2n1Cc1ccc(-c2ccccc2-c2nc(=O)o[nH]2)cc1` registered a melting point of 170 to 172 °C.
Compound `O=c1c2ccccc2nc(-c2cc(-c3ccccc3)c(N3CCOCC3)s2)n1-c1ccc(Cl)cc1` came in with a melting point of 223 to 224 °C.

The values above are taken from a melting point compilation (Tetko et al.; mined from patent text by program, amines drawn as free bases though some values may be those of a salt).
